Residues, ends and D or L forms follow the SMILES beside them. *: point of attachment. Cbz = O=C(OCc1ccccc1)*
Target: mutant p53 (Homo sapiens, UniProt P04637, P309S/R273H)
Format: cell-based
Parameters: Mutant p53 protein levels in mutant p53-expressing cancer cells treated with NSC59984; endogenous in cells; host or cells: SW480, DLD-1, Hop92, RXF393; effect on NSC59984-mediated down-regulation of mutant p53: dose or concentration left out as unconfirmed
Settings: SW480 cells, MG132 with NSC59984, 16 hr
Method: The primary antibodies indicated in the figures were incubated with the transferred PVDF in blocking buffer at 4° C. overnight. Antibody binding was detected on PVDF with appropriate IRDye-secondary antibodies (LI-COR Biosciences, USA) by the ODYSSEY infrared imaging system.

CC(C)C[C@@H](C=O)NC(=O)[C@H](CC(C)C)NC(=O)[C@H](CC(C)C)NC(=O)OCc1ccccc1 [MG132, reference compound] (Cbz-Leu-Leu-Leu-aldehyde)
effect on NSC59984-mediated down-regulation of mutant p53: rescued

Source: patent US10322123B2, “Compound for anti-cancer therapy that acts by targeting GOF mutant P53 and stimulates P73 to restore the P53 pathway signaling” (The Penn State Research Foundation, priority 2014, dated 2019)
